Results on 66 compounds are retold here after a melting point compilation (Tetko et al.; mined from patent text by program, amines drawn as free bases though some values may be those of a salt).

In general, melting point refers to the temperature, or range, at which the solid turns liquid. `CN(C)C(=O)c1ccc(C2CCC(=O)CC2)cc1`: the melting point is 118 °C.

Compound `Cc1ccc(S(=O)(=O)NCCOCCO)cc1` yielded a melting point of 35 to 38 °C.

In turn, `Cc1nc(Cc2ccc([N+](=O)[O-])cc2)cs1` returned a melting point of 118 to 119 °C.

`CCCn1c(=O)nc2sc3ccccc3nc-2c1=O`: the melting point was 258 °C.

`O=C1CNc2cc(Br)c(Cl)cc2N1` gave a melting point of 230 to 232 °C.

`O=C(O)CP(=O)(O)CCNC(=O)c1ccccc1` displayed a melting point of 54 to 57 °C.

With `CCC(COc1cccc(C(F)(F)F)c1)OC(=O)NCc1ccccc1` (stereo unspecified), the melting point is 73 to 74 °C.

In the case of `CCOC(=O)c1ccc(NC(=O)c2ccccc2C)cc1`, the melting point lay within 110 to 115 °C.

Take `CC1OC(c2cc(-n3c(=O)cc(C(F)(F)F)n(C)c3=O)ccc2Cl)OC1C` (stereo unspecified): the melting point is 149 to 151 °C.

Compound `Cc1ccc(C(=O)Nc2nc(-c3ccccc3)c(-c3nc4ccccc4c(=O)n3-c3ccccc3C)s2)cc1` showed a melting point above 275 °C.

Compound `CNc1ccc(C)nc1N` registered a melting point of 112 to 113 °C.

Compound `O=C(CC[C@H]1CC1(c1ccccc1)c1ccccc1)Oc1ccc([N+](=O)[O-])cc1` yielded a melting point of 76 to 77 °C.

The compound `COCCc1sc2ncnc(N)c2c1-c1ccc(N)cc1` registered a melting point of 144 to 146 °C.

Take `CC1(C)CC(C)(C)CC(CCC(=O)O)(NC(=O)CCl)C1`: the melting point was 130 to 131 °C.

Turning to `CC1(C)COC(=O)N1c1nc(-c2ccc(C#N)cc2)c(F)s1`, the melting point fell in the range of 177 to 178 °C.

In turn, `COC(=O)c1ccc(CCCOCCCCCNCC(O)c2cc(Cl)c(N)c(Cl)c2)o1` (stereo unspecified) yielded a melting point of 58 to 59 °C.

For the compound `O=c1c(-c2nc[nH]n2)coc2ccccc12`, the melting point was found to be 160 °C.

On to `CN(C)CCCNS(=O)(=O)c1cccc([N+](=O)[O-])c1`, for which the melting point lay within 84 to 87 °C.

Take `CCOC(=O)Cc1csc(-c2ccccc2O)n1`: the melting point lay in the range of 35.5 to 36.5 °C.

As to `O=C(NCCc1ccc(F)cc1)c1ccc(S(=O)(=O)Nc2ccccc2C(=O)O)cc1`, the melting point lay in the range of 85 to 86 °C.

As to `CC1(c2ccccc2)SCN=C1COc1ccc(C#N)cn1` (stereo unspecified), the melting point is 124 to 125 °C.

As to `C[C@@H]1c2cc(F)ccc2-c2ccc(F)cc2N1S(=O)(=O)c1ccc(O)cc1O`, the melting point was 153 to 156 °C.

Consider `O=C(NCc1ccccc1)Nc1ccc(Cl)cc1`, for which the melting point lay in the range of 206 to 208 °C.

Turning to `Fc1c(F)c(C(F)(F)F)c(F)c(F)c1Nc1ccc(-c2ccc(Nc3c(F)c(F)c(C(F)(F)F)c(F)c3F)cc2)cc1`, the melting point was in the range of 179 to 180 °C.

The compound `COc1ccc2cc(C3CCN(C[C@H](O)COc4cccc5sc(-c6ncc(C)o6)cc45)CC3)ccc2c1` displayed a melting point of 163 to 166 °C.

As to `Cc1c(-c2c[nH]cc2C#N)cccc1C(F)(F)F`, the melting point fell in the range of 99 to 100 °C.

In turn, `CN1C[C@@H]2CN(c3ccc4nc(Br)cn4n3)C[C@@H]2C1` registered a melting point of 144 to 146 °C.

In turn, `O=c1[nH]c2cc(Cl)cc(Cl)c2c(O)c1Sc1ccccc1Cl` yielded a melting point of 285 to 288 °C.

The compound `O=C1CC(c2ccccc2)Cc2c1ccn2Cc1ccccc1` (stereo unspecified) came in with a melting point of 122 to 123 °C.

As for `Cn1cnc([N+](=O)[O-])c1CBr`, the melting point lay in the range of 130 to 132 °C.

`CC(C)(C)c1cc(CO)c(O)c(CO)c1` had a melting point of 68 to 73 °C.

In turn, `ON=C(c1ccccc1F)c1ccc(O)c(Cl)c1Cl` registered a melting point of 168 to 175 °C.

Take `FC(F)=C(F)CCSc1nc(-c2ccc(Cl)cc2)no1`: the melting point was in the range of 49 to 52 °C.

Turning to `CCOC(=O)c1cc(OCN2C(=O)c3c(C(C)C)cc(OC)cc3S2(=O)=O)n(-c2ccccc2)n1`, the melting point lay in the range of 170 to 171 °C.

The compound `CC(C)(C)C1=NCC(O)CN1` (stereo unspecified) displayed a melting point of 210 °C.

Regarding `CC(C)COC(=O)N=C(N=C1NC(=O)C(=O)N1c1ccc(Cl)c(Cl)c1)NC(C)C`, the melting point is 260 °C.

Take `CCCCc1nc(CO)c(C(N)=O)n1Cc1ccc(-c2ccccc2C(=O)OC(C)(C)C)cc1`: the melting point was in the range of 222 to 224 °C.

Consider `C/C(=C\C=C\c1ccccc1)C(=O)NCCCCCC(=O)NO`, for which the melting point lay within 158 to 160 °C.

`Cc1nnc(-c2ccc3occ(-c4ccc(S(=O)(=O)Cc5ccccc5)cc4)c3c2)o1`: the melting point fell in the range of 229 to 230 °C.

Regarding `O=C(OC(Cn1ccnc1)c1ccc2ccccc2c1)c1ccccc1` (stereo unspecified), the melting point is 219 to 220 °C.

`CC(CO)Oc1cc(Oc2ccc(S(C)(=O)=O)cc2)cc2cc(C3=NCC(CC(N)=O)S3)[nH]c12` (stereo unspecified) showed a melting point of 137 to 142 °C.

For `COc1ccc(-c2cc(C3CCCCC3)sc2-c2ccc(OC)cc2)cc1`, the melting point was 95 to 98 °C.

The compound `CCC(CC)Nc1cc(C(=O)O)ccc1N1C(=O)CCC1(CO)CCO` (stereo unspecified) gave a melting point of 188 to 190 °C.

`O=C1c2ccccc2C(O)N1CCCN1CCN(c2ccc(O)cc2)CC1` (stereo unspecified) displayed a melting point of 190 °C.

For the compound `CCOC(=O)C(=NOC)c1nc(N)cc(Cl)n1`, the melting point lay within 136 to 142 °C.

Take `C=CCOc1ccc(OC2CCCCO2)c2c1NC(=O)CC2` (stereo unspecified): the melting point is 111 to 113 °C.

As to `CCc1c(C)[nH]c2cc(OCOC)c(Cl)cc2c1=O`, the melting point is 217 to 219 °C.

In turn, `CCCCCC(=O)n1nc(-c2cc(C(C)(C)C)c(O)c(C(C)(C)C)c2)c2cccnc21` yielded a melting point of 112 to 114 °C.

In turn, `NC(=O)c1nc(-c2cncc(Cl)c2)nc2c1[nH]c(=O)n2-c1ccccc1C(F)(F)F` returned a melting point of 230 to 232 °C.

`CC1NC(=O)NN=C1c1ccccc1` (stereo unspecified): the melting point came to 214 °C.

On to `Cc1nc(N2CCc3ccccc3CC2)c(C#N)c(=O)n1N`, for which the melting point is 137 to 142 °C.

In turn, `Nc1c(C(=O)c2ccccc2)[nH]c2cc(Cl)ccc12` returned a melting point of 128 to 130 °C.

The compound `COc1ccc(N2CCN(S(=O)(=O)c3cccc(/C=C/C(=O)NO)c3)CC2)cc1` had a melting point of 203 °C.

For the compound `CCC(CC)Oc1cc(C)nc(Nc2c(C)cc(C)cc2C)c1C(=O)n1ccnc1`, the melting point lay in the range of 120 to 122 °C.

`CCCCN(CCCC)C(=O)Cc1ccccc1Nc1c(Cl)cccc1Cl`: the melting point was in the range of 66 to 68 °C.

On to `O=[N+]([O-])c1ccc(Sc2nccn2-c2ccccc2)cc1`, for which the melting point lay within 123 to 125 °C.

`O=C1Cc2cc(Cl)cc(C(=O)c3ccc(F)cc3)c2N1` yielded a melting point of 222 to 225 °C.

As for `CC(C)(C)c1onc(NS(=O)(=O)c2ccccc2)c1Br`, the melting point lay in the range of 139 to 141 °C.

With `CCCc1nc2cnccc2s1`, the melting point lay in the range of 44 to 47 °C.

`COC(=O)c1cccc(N)c1S` showed a melting point of 174 to 175 °C.

As for `Cc1cc(-n2cnn(Cc3ccc(F)cc3)c2=O)sc1C(=O)NCc1cccnc1`, the melting point fell in the range of 180 to 182 °C.

Take `Cc1cccc(CNc2ncccc2[N+](=O)[O-])n1`: the melting point was 132 °C.

On to `Cn1ccc(=O)c(OCc2ccccc2)c1C(O)c1ccc2c(c1)OCO2` (stereo unspecified), for which the melting point was in the range of 230 to 232 °C.

The compound `CCNc1c(OC)cc(Cc2cnc(N)nc2N)cc1OC` came in with a melting point of 186 to 188 °C.

`CCOC(=O)C#CCOCC1=C(C(=O)OCC)C(c2cccc(Cl)c2Cl)C(C(=O)OC)=C(C)N1` (stereo unspecified) showed a melting point of 123 to 125 °C.

`O=C(O)CCCOn1nnc2ccc(Cn3ccnc3)cc21` yielded a melting point of 170 °C.
